Consider 1 compound from patent US10709684B2, “SGLT-2 inhibitors for treating metabolic disorders in patients with renal impairment or chronic kidney disease” (Merck Sharp & Dohme Corp., priority 2014, dated 2020).

Like-named read-outs stand apart in the source and are kept apart here.

What all share (assay type): in vivo, human
A short description of series [1]: Phase 1 single dose study: pharmacokinetics of ertugliflozin in renal impairment. The following applies: single 15 mg oral dose; for AUC(0-inf) / Cmax: geometric mean. An excerpt:
(§1) Results of a Phase I, Single Dose Study to Study the Effect of Renal Impairment on the Pharmacokinetics and Pharmacodynamics of Ertugliflozin in Subjects with Type 2 Diabetes Mellitus (T2DM)
(§2) Ertugliflozin inhibits renal glucose reabsorption resulting in urinary glucose excretion, thereby reducing plasma glucose and HbA1c. The glycemic efficacy of SGLT2 inhibitors depends on the amount of glucose filtered through the kidney and the kidney is potentially a site of ertugliflozin metabolism. As renal impairment (RI) is a co-morbidity of T2DM, this study evaluated the effect of RI on the pharmacokinetics, pharmacodynamics (as measured by 24-hour urinary glucose excretion [UGE24]), safety, and tolerability of ertugliflozin in subjects with T2DM.
(§3) In this Phase 1, multi-center, open-label study, a single 15 mg oral dose of ertugliflozin was administered in the fasted state to healthy and T2DM subjects with normal renal function (estimated glomerular filtration rate [eGFR]≥90 mL/min) and in T2DM subjects with mild RI (eGFR 60-89 mL/min), moderate RI (eGFR 30-59 mL/min) and severe RI (eGFR<30 mL/min). Serial blood samples and urine samples at specified intervals were collected for 96 hours post-dose for pharmacokinetic evaluation and for measurement of UGE24.

Series [2] relates to urinary glucose excretion. Description: Phase 1 single dose study: pharmacodynamics, 24-hour urinary glucose excretion (UGE24). The following applies: single 15 mg oral dose; for Change from baseline in UGE24: fasted, geometric mean.
From the text: as §1, §2, §3

Series [3] deals with healthy and T2DM subjects. Description: Phase 1 single dose study: safety and tolerability. The following applies: single 15 mg dose; subjects with normal renal function and T2DM subjects with renal impairment.
From the text: as §2, §3

Where [4] appears, read: Healthy Normal renal function (eGFR>=90 mL/min), n = 8, fasted.
Where [5] appears, read: T2DM Normal renal function (eGFR>=90 mL/min), n = 6, fasted.

Turning to `CCOc1ccc(Cc2cc([C@]34OC[C@](CO)(O3)[C@@H](O)[C@H](O)[C@H]4O)ccc2Cl)cc1` [Ertugliflozin, (1S,2S,3S,4R,5S)-5-[4-chloro-3-(4-ethoxy-benzyl)-phenyl]-1-hydroxymethyl-6,8-dioxa-bicyclo[3.2.1]octane-2,3,4-triol], the AUC(0-inf) in series [1] (setting [4]) was determined as 1236 ng·h/mL; in series [1] (setting [5]), 1199 ng·h/mL; in series [1] (human, in vivo, po, 15 mg, T2DM Mild RI (eGFR 60-89 mL/min), n = 8, fasted, read-out: AUC0-inf), 1910 ng·h/mL; in series [1] (human, in vivo, po, 15 mg, T2DM Moderate RI (eGFR 30-59 mL/min), n = 8, fasted, read-out: AUC0-inf) it was 2080 ng·h/mL; in series [1] (human, in vivo, po, 15 mg, T2DM Severe RI (eGFR<30 mL/min), n = 6, fasted, read-out: AUC0-inf) it was 1900 ng·h/mL. In addition, the Cmax turned out to be 219 ng/mL in series [1] (setting [4]); 313 ng/mL in series [1] (T2DM Mild RI (eGFR 60-89 mL/min), n = 8, fasted); 306 ng/mL in series [1] (T2DM Moderate RI (eGFR 30-59 mL/min), n = 8, fasted); 216 ng/mL in series [1] (setting [5]); 196 ng/mL in series [1] (T2DM Severe RI (eGFR<30 mL/min), n = 6, fasted). Besides, the “effect of renal insufficiency on systemic exposure” value in series [1] (compared to subjects with normal renal function) is recorded as “moderately increased”. In series [1] (fasted), the “exposures in healthy subjects versus T2DM subjects with normal renal function” value is given as “similar”. Moreover, the “Change from baseline in UGE24” value in series [2] (Healthy Normal renal function (eGFR>=90 mL/min), n = 8) is 46.3 g; in series [2] (T2DM Mild RI (eGFR 60-89 mL/min), n = 8) it was 36.0 g; in series [2] (T2DM Moderate RI (eGFR 30-59 mL/min), n = 8), 27.6 g; in series [2] (T2DM Normal renal function (eGFR>=90 mL/min), n = 6) it was 72.3 g; in series [2] (T2DM Severe RI (eGFR<30 mL/min), n = 6), 10.1 g. In series [2] (despite the higher exposure), the “UGE24 trend with renal function” value is recorded as “decreased with declining renal function”. Besides, the tolerability entry in series [3] is on record as “well tolerated”.

A word on the Cmax: it is the peak of the concentration-time curve.
